This is an account of results in patent US20250231185A1, “Coronavirus T Cell Epitopes, Megapools and Uses Thereof” (La Jolla Institute for Immunology, priority 2021, published 2025).

In one assay the test system is CD8+ T cells. The experiment in a line: Meta-analysis of published SARS-CoV-2 CD8 T cell epitope data curated in the IEDB (25 studies). Type of assay: cell-based, human. To be noted: CD8-restricted SARS-CoV-2 epitopes; Yes = recognized by 3 or more donors/different studies.
Consider 1260 (WTAGAAAYYVGY) [compound 1260], for which the Dominant entry is on record as “Yes (more dominant epitopes are defined by being recognized by 3 or more donors/different studies)”.

On to 1140 (LLYDANYFL) [compound 1140], for which the Dominant result is “Yes (more dominant epitopes are defined by being recognized by 3 or more donors/different studies)”.

As for 1178 (VQELYSPIFLIV) [compound 1178], the Dominant entry is on record as “Yes (more dominant epitopes are defined by being recognized by 3 or more donors/different studies)”.

In the case of 1181 (IMLIIFWFSL) [compound 1181], the Dominant result was “Yes (more dominant epitopes are defined by being recognized by 3 or more donors/different studies)”.

Consider 1291 (KCYGVSPTK) [compound 1291], for which the Dominant result is listed as “Yes (more dominant epitopes are defined by being recognized by 3 or more donors/different studies)”.

Turning to 1220 (RFDNPVLPF) [compound 1220], the Dominant entry is “Yes (more dominant epitopes are defined by being recognized by 3 or more donors/different studies)”.

Take 1229 (FCNDPFLGVYY) [compound 1229]: the Dominant entry is “Yes (more dominant epitopes are defined by being recognized by 3 or more donors/different studies)”.

As for 1258 (LLALHRSYL) [compound 1258], the Dominant entry is recorded as “Yes (more dominant epitopes are defined by being recognized by 3 or more donors/different studies)”.

In the case of 1174 (RARSVSPKL) [compound 1174], the Dominant entry is “Yes (more dominant epitopes are defined by being recognized by 3 or more donors/different studies)”.

Take 1119 (ALSKGVHFV) [compound 1119]: the Dominant entry is listed as “Yes (more dominant epitopes are defined by being recognized by 3 or more donors/different studies)”.

With 1132 (YLYALVYFL) [compound 1132], the Dominant result is “Yes (more dominant epitopes are defined by being recognized by 3 or more donors/different studies)”.

With 1104 (MDLFMRIFTI) [compound 1104], the Dominant result is “Yes (more dominant epitopes are defined by being recognized by 3 or more donors/different studies)”.

Consider 1248 (IYSKHTPINL) [compound 1248], for which the Dominant entry is “Yes (more dominant epitopes are defined by being recognized by 3 or more donors/different studies)”.

As for 1259 (WTAGAAAYY) [compound 1259], the Dominant result was “Yes (more dominant epitopes are defined by being recognized by 3 or more donors/different studies)”.

For 1286 (RISNCVADY) [compound 1286], the Dominant entry is “Yes (more dominant epitopes are defined by being recognized by 3 or more donors/different studies)”.

1212 (STQDLFLPFF) [compound 1212]: the Dominant result is recorded as “Yes (more dominant epitopes are defined by being recognized by 3 or more donors/different studies)”.

Regarding 1192 (LEYHDVRVVL) [compound 1192], the Dominant entry is given as “Yes (more dominant epitopes are defined by being recognized by 3 or more donors/different studies)”.

Regarding 1117 (ITLKKRWQLAL) [compound 1117], the Dominant result is “Yes (more dominant epitopes are defined by being recognized by 3 or more donors/different studies)”.

On to 1105 (RIFTIGTVTLK) [compound 1105], for which the Dominant entry is recorded as “Yes (more dominant epitopes are defined by being recognized by 3 or more donors/different studies)”.

Consider 1107 (FVRATATIPI) [compound 1107], for which the Dominant result is listed as “Yes (more dominant epitopes are defined by being recognized by 3 or more donors/different studies)”.

In the case of 1249 (TPINLVRDL) [compound 1249], the Dominant result was “Yes (more dominant epitopes are defined by being recognized by 3 or more donors/different studies)”.

Staying with this assay, now noted: CD8S (D) Megapool, antigen S; dominant = recognized in 3 or more donors/studies.
Take 1495 (SVASQSIIAY) [compound 1495]: the Dominant result was “Yes (more dominant epitopes are defined by being recognized by 3 or more donors/different studies)”.

Turning to 1503 (LTDEMIAQY) [compound 1503], the Dominant entry is reported as “Yes (more dominant epitopes are defined by being recognized by 3 or more donors/different studies)”.

With 1499 (TEILPVSMTK) [compound 1499], the Dominant entry was “Yes (more dominant epitopes are defined by being recognized by 3 or more donors/different studies)”.

1496 (VASQSIIAY) [compound 1496]: the Dominant entry is “Yes (more dominant epitopes are defined by being recognized by 3 or more donors/different studies)”.

With 1515 (GTHWFVTQR) [compound 1515], the Dominant entry is listed as “Yes (more dominant epitopes are defined by being recognized by 3 or more donors/different studies)”.

Regarding 1469 (YTNSFTRGVY) [compound 1469], the Dominant result is “Yes (more dominant epitopes are defined by being recognized by 3 or more donors/different studies)”.

Turning to 1479 (LLALHRSYL) [compound 1479], the Dominant result is recorded as “Yes (more dominant epitopes are defined by being recognized by 3 or more donors/different studies)”.

Take 1475 (SSANNCTFEY) [compound 1475]: the Dominant result is on record as “Yes (more dominant epitopes are defined by being recognized by 3 or more donors/different studies)”.

1482 (RISNCVADY) [compound 1482]: the Dominant entry was “Yes (more dominant epitopes are defined by being recognized by 3 or more donors/different studies)”.

As to 1487 (NLDSKVGGNY) [compound 1487], the Dominant result is given as “Yes (more dominant epitopes are defined by being recognized by 3 or more donors/different studies)”.

Turning to 1489 (YFPLQSYGF) [compound 1489], the Dominant result is “Yes (more dominant epitopes are defined by being recognized by 3 or more donors/different studies)”.

1521 (SEPVLKGVKL) [compound 1521]: the Dominant entry is given as “Yes (more dominant epitopes are defined by being recognized by 3 or more donors/different studies)”.

Regarding 1486 (KLPDDFTGCV) [compound 1486], the Dominant result is listed as “Yes (more dominant epitopes are defined by being recognized by 3 or more donors/different studies)”.

As to 1477 (IYSKHTPINL) [compound 1477], the Dominant entry is reported as “Yes (more dominant epitopes are defined by being recognized by 3 or more donors/different studies)”.

With 1516 (RLNEVAKNL) [compound 1516], the Dominant result is reported as “Yes (more dominant epitopes are defined by being recognized by 3 or more donors/different studies)”.

Consider 1473 (TEKSNIIRGW) [compound 1473], for which the Dominant result is “Yes (more dominant epitopes are defined by being recognized by 3 or more donors/different studies)”.

Staying with this assay, now noted: CD8 epitopes; Yes = recognized by 3 or more donors/different studies.
451 (SYFIASFRLFA) [compound 451]: the Dominant result is given as “Yes (more dominant epitopes are defined by being recognized by 3 or more donors/different studies)”.

For 492 (KFPRGQGVPI) [compound 492], the Dominant result is given as “Yes (more dominant epitopes are defined by being recognized by 3 or more donors/different studies)”.

Turning to 442 (TLACFVLAAV) [compound 442], the Dominant result was “Yes (more dominant epitopes are defined by being recognized by 3 or more donors/different studies)”.

466 (AVILRGHLR) [compound 466]: the Dominant entry is listed as “Yes (more dominant epitopes are defined by being recognized by 3 or more donors/different studies)”.

Consider 463 (SELVIGAVIL) [compound 463], for which the Dominant result is listed as “Yes (more dominant epitopes are defined by being recognized by 3 or more donors/different studies)”.

For 455 (RLFARTRSMW) [compound 455], the Dominant entry is recorded as “Yes (more dominant epitopes are defined by being recognized by 3 or more donors/different studies)”.

As to 475 (ATSRTLSYYK) [compound 475], the Dominant entry was “Yes (more dominant epitopes are defined by being recognized by 3 or more donors/different studies)”.

Take 437 (NRFLYIIKL) [compound 437]: the Dominant result is recorded as “Yes (more dominant epitopes are defined by being recognized by 3 or more donors/different studies)”.

With 429 (LQFAYANRNRFLY) [compound 429], the Dominant entry is recorded as “Yes (more dominant epitopes are defined by being recognized by 3 or more donors/different studies)”.

Still in this assay, the particulars now being: SARS-CoV-2-derived CD8 epitopes; dominant = recognized by 3 or more donors/different studies.
With 851 (TPKYKFVRI) [compound 851], the Dominant result is “Yes (more dominant epitopes are defined by being recognized by 3 or more donors/different studies)”.

Consider 883 (NYSGVVTTVMF) [compound 883], for which the Dominant result is recorded as “Yes (more dominant epitopes are defined by being recognized by 3 or more donors/different studies)”.

874 (MPASWVMRI) [compound 874]: the Dominant result is on record as “Yes (more dominant epitopes are defined by being recognized by 3 or more donors/different studies)”.

Turning to 747 (ILFTRFFYV) [compound 747], the Dominant result is “Yes (more dominant epitopes are defined by being recognized by 3 or more donors/different studies)”.

As to 723 (ASMPTTIAK) [compound 723], the Dominant entry is recorded as “Yes (more dominant epitopes are defined by being recognized by 3 or more donors/different studies)”.

As to 861 (FLNRFTTTL) [compound 861], the Dominant entry is given as “Yes (more dominant epitopes are defined by being recognized by 3 or more donors/different studies)”.

As to 852 (VRIQPGQTF) [compound 852], the Dominant result is listed as “Yes (more dominant epitopes are defined by being recognized by 3 or more donors/different studies)”.

Regarding 808 (FLPRVFSAV) [compound 808], the Dominant result was “Yes (more dominant epitopes are defined by being recognized by 3 or more donors/different studies)”.

For the substance 719 (NYMPYFFTL) [compound 719], the Dominant entry is “Yes (more dominant epitopes are defined by being recognized by 3 or more donors/different studies)”.

On to 882 (SMWALIISV) [compound 882], for which the Dominant result was “Yes (more dominant epitopes are defined by being recognized by 3 or more donors/different studies)”.

Turning to 754 (YIFFASFYY) [compound 754], the Dominant entry is “Yes (more dominant epitopes are defined by being recognized by 3 or more donors/different studies)”.

848 (TSEDMLNPNY) [compound 848]: the Dominant entry is recorded as “Yes (more dominant epitopes are defined by being recognized by 3 or more donors/different studies)”.

For the substance 866 (SAFAMMFVK) [compound 866], the Dominant entry is “Yes (more dominant epitopes are defined by being recognized by 3 or more donors/different studies)”.
